Experimental data: patent publication US20250026769A1, “PAPD5 INHIBITORS AND METHODS OF USE THEREOF” (The Children's Medical Center Corporation, priority 2021, published 2025)
Like-named read-outs stand apart in the source and are kept apart here.

Experiments:
[1] = system: TERC 3′ end processing in DC patient iPSCs; test: TERC 3′ end processing by RACE in DC patient / PARN-mutant iPSCs; format: cell-based, human; settings: for minimal effective concentration: Homo sapiens, iPSC, patient iPSCs, concentration class at which activity is seen, read-out: iPSC-based RACE activity
Procedure, shortened: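 Activity binned by concentration giving effect in DC patient iPSCs: "+" at 1 μM, "++" above 1 nM and below 1 μM, "+++" below 1 nM; ND, not determined.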

[2] = system: TERC 3′ ends in human CD19+ cells recovered from mice xenotransplanted with HSPCs; test: TERC 3′ end processing in vivo in human CD19+ cells after xenotransplantation into NBSGW mice; set-up: species or system immunodeficient NBSGW mice with human HSPCs; settings: for aberrant TERC oligo-adenylation in xenotransplanted PARN-deficient human blood cells: oral, RACE amplicon sequencing
From the text: (§1) Example 168—Restoration of TERC 3′ end processing in vivo in human blood cells after xenotransplantation into immunodeficient mice. To determine the efficacy of orally administered exemplified compounds in primary human HSPCs and blood cells in restoring TERC processing in vivo, highly-efficient CRISPR-Cas9 ribonucleoprotein transduction was employed to disrupt the PARN gene in primary human CD34+ HSPCs or the control locus AAVS1. These genome-edited human HSPCs were xenotransplanted into immunodeficient NOD,B6.SCID Il2rg−/− KitW4l/W41 (NBSGW) mice, which engraft human HSPCs without exposure to radiation or chemotherapy. Six to ten weeks after xenotransplantation, exemplified compounds were administered for 4 to 7 days alongside controls. Thereafter, human hematopoietic cells were recovered from mouse bone marrow, and engraftment was analyzed by flow cytometry. Engrafted human hematopoietic cells were sorted for lineage markers, and CD19+ cells were used for analysis of restoration of TERC 3′ end processing by RNA-ligation mediated 3′ RACE.

[3] = system: telomere length in DC patient iPSCs; test: telomere length / telomere elongation in DC patient iPSCs; format: cell-based, human; settings: for minimal effective concentration: Homo sapiens, iPSC, patient iPSCs, concentration class at which activity is seen, read-out: iPSC-based Telomere length
Experimental: Compound 266A had activity ˜2-logs higher in the in vitro RNA oligoadenylation assay compared to the parental compound cmpd. 1, approximating the activity of RG7834 (FIG. 7). […] 1. Compounds 295A and 296A had activity 2-3 logs higher in DC patient iPSCs, showing TERC maturation at 1 nM, similar to RG7834 (FIG. 6). […] Referring to Table 1D, “+” refers to activity at 1 μM, “++” refers to activity above 1 nM and below 1 μM, and “+++” refers to activity at <1 nM, “ND” refers to not determined.

[4] = system: TERC 3′ end processing in primary CD34+ human hematopoietic stem and progenitor cells (HSPCs); test: TERC 3′ end processing (RACE) in CRISPR/Cas9-engineered PARN-deficient primary CD34+ HSPCs; format: cell-based; settings: for TERC 3′ end processing by RACE at 100 nM: day 5 (FIG. 40B); for TERC 3′ end processing by RACE at 1 μM: day 5 (FIG. 40A)
From the text: Example 167—Restoration of TERC 3′ end processing in primary CD34+ human hematopoietic stem and progenitor cells (HSPCs). To determine the efficacy of exemplified compounds in a disease-relevant stem cell population, we employed a highly-efficient CRISPR-Cas9 ribonucleoprotein transduction strategy to disrupt the PARN gene in primary human CD34+ hematopoietic stem and progenitor cells (HSPCs), or the control locus AAVS1. FIGS. 40A and 40B show extended TERC forms in CRISPR-Cas9 engineered HSPCs deficient in PARN.

[5] = system: engraftment of CD45+, CD19+, CD34+ human blood cells; test: engraftment of human blood cells in xenotransplanted mice by flow cytometry; format: in vivo, immunodeficient NBSGW mice with human HSPCs
From the text: as §1

rPAPD5 = molecular target: T1, rPAPD5 (Homo sapiens, UniProt Q8NDF8); test: differential scanning fluorimetry (DSF) binding and stabilization of rPAPD5; settings: for ΔTm at 100 µM: read-out: ΔTm at 100 μM; for ΔTm at 1 µM: 1 μM test compound (Table 2a), read-out: ΔTm at 1 μM
T1 construct: made in house
T1 sequence (Q8NDF8 68-698 isoform Q8NDF8-5 limits assumed): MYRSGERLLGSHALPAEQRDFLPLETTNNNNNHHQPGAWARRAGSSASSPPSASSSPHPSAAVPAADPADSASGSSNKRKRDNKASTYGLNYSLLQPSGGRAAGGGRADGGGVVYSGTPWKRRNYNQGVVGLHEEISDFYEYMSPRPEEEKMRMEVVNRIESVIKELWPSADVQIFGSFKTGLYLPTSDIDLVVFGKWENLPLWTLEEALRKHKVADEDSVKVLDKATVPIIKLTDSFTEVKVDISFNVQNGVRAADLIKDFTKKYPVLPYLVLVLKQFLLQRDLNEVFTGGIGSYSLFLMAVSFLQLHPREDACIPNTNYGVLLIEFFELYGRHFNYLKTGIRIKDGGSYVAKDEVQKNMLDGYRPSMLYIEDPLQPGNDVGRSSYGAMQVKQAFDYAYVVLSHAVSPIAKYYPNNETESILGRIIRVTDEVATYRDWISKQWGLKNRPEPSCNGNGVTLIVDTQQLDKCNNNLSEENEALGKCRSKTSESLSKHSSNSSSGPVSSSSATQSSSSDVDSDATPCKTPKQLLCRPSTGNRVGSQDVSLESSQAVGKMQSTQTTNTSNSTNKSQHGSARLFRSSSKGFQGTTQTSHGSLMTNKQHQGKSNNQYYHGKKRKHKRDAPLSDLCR
Procedure, shortened: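 Differential scanning fluorimetry was used to measure how test compounds bind and thermally stabilize rPAPD5. The reaction contained SYPRO orange dye diluted 1:5000 in […] of buffer with […], 25 mM Tris-HCl, 5 mM MgCl2 and 50 mM KCl. ΔTm was calculated relative to a DMSO control.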

[6] = system: hepatitis B surface antigen (HBSAg) from HepG2.2.15 cells, a hepatitis B virus-expressing cell line; test: HBsAg ELISA in supernatant of HepG2.2.15 cells; format: cell-based; settings: HepG2.2.15, 96 h
Procedure, shortened: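 HepG2.2.15 cells plated at 50,000/well, then exposed the next day to 3-fold compound dilutions from 100 μM to 333 pM, with DMSO vehicle as control. After 4 days at 37 °C, HBsAg in the supernatant was measured by ELISA. IC50 obtained by nonlinear fitting of averaged replicates.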

[7] = 32 mg/kg/dose twice daily for 11 doses, with 250 μM in drinking water
[8] = 32 mg/kg/dose twice daily for 11 doses (FIG. 41D)
[9] = 32 mg/kg/dose twice daily for 11 doses
[10] = 100 μM test compound, shift vs DMSO control
[11] = 10 μM test compound (Table 2a), read-out: ΔTm at 10 μM
[12] = 32 mg/kg/dose every other day for 4 days
[13] = 10 μM test compound, shift vs DMSO control, read-out: ΔTm (Table 2, starred: the compound was tested at 10 μM)

In the case of `O=C(O)c1cc(Cl)ccc1Nc1c(C2CCOCC2)cnc2ccc(Cl)cc12` [Compound 296A, 5-chloro-2-[(6-chloro-3-tetrahydropyran-4-yl-4-quinolyl)amino]benzoic acid], the “concentration showing maturation of TERC 3′ end processing by RACE” value ([1]; DC patient iPSCs) is reported as 1 nM, the “TERC 3′ ends in human CD19+ cells (RACE)” value ([2]; 32 mg/kg/dose twice daily for 11 doses, with 250 μM in drinking water (FIG. 41A)) is reported as “maturation of TERC 3′ ends” and the “aberrant TERC oligo-adenylation in xenotransplanted PARN-deficient human blood cells” value [2, 7] is reported as “significantly reversed”. For the same molecule, the “concentration at which telomere elongation was observed” value ([3]; DC patient iPSCs, after 3-4 weeks of cell culture) was 1 nM, the “TERC 3′ end processing by RACE at 100 nM” value [4] was “maturation of TERC 3′ end processing” and the “TERC 3′ end processing by RACE at 1 μM” value [4] was “maturation of TERC 3′ end processing”. The “engraftment of CD45+, CD19+, CD34+ human blood cells” value (from here on “engraftment of CD45+, CD19+”) [5, 7] was “no change in engraftment”, the ΔTm at 100 µM (rPAPD5) was over 5 °C and the IC50 [6] was 5 nM.

For `O=C(O)c1cc(Cl)ccc1Nc1c(C2=CCOCC2)cnc2ccc(Cl)cc12` [Compound 297A, 5-chloro-2-[[6-chloro-3-(3,6-dihydro-2H-pyran-4-yl)-4-quinolyl]amino]benzoic acid], the “TERC 3′ ends in human CD19+ cells (RACE)” value [2, 8] was “maturation of TERC 3′ ends”, the “engraftment of CD45+, CD19+” value [5, 9] was “no change in engraftment” and the ΔTm at 100 µM (rPAPD5; [10]) was over 5 °C. It also gave an IC50 [6] of 42 nM.

With `O=C(O)c1cc(Cl)ccc1Nc1c(N2CCOCC2)cnc2ccc(Cl)cc12` [Compound 339A, 5-chloro-2-[(6-chloro-3-morpholino-4-quinolyl)amino]benzoic acid] the minimal effective concentration [1] was under 0.001 µM, the “TERC 3′ ends in human CD19+ cells (RACE)” value ([2]; 1 mM in drinking water for 7 days (FIG. 41C)) was “maturation of TERC 3′ ends” and the minimal effective concentration [3] was under 0.001 µM. The “TERC 3′ end processing by RACE at 100 nM” value [4] was “maturation of TERC 3′ end processing”, the “TERC 3′ end processing by RACE at 1 μM” value [4] was “maturation of TERC 3′ end processing” and the “engraftment of CD45+, CD19+” value ([5]; 1 mM in drinking water for 7 days) was “no change in engraftment”. The ΔTm at 1 µM (rPAPD5) was over 5 °C, the ΔTm at 10 µM (rPAPD5; [11]) was over 5 °C and the ΔTm at 100 µM (rPAPD5; [10]) was over 5 °C. It also gave an IC50 [6] of 75 nM.

With `O=C(O)c1cc(Cl)ccc1Nc1c(C2=CCC(F)(F)CC2)cnc2ccc(Cl)cc12` [Compound 344A, 5-chloro-2-[[6-chloro-3-(4,4-difluorocyclohexen-1-yl)-4-quinolyl]amino]benzoic acid] the minimal effective concentration [1] was under 0.001 µM, the “TERC 3′ ends in human CD19+ cells (RACE)” value ([2]; 32 mg/kg/dose every other day for 4 days (FIG. 41B)) was “maturation of TERC 3′ ends” and the “aberrant TERC oligo-adenylation in xenotransplanted PARN-deficient human blood cells” value [2, 12] was “significantly reversed”. The minimal effective concentration [3] was under 0.001 µM, the “engraftment of CD45+, CD19+” value [5, 12] was “no change in engraftment” and the ΔTm at 1 µM (rPAPD5) was over 5 °C. It also gave a ΔTm at 10 µM (rPAPD5; [11]) of over 5 °C, a ΔTm at 10 µM (rPAPD5; [13]) of over 5 °C and an IC50 [6] of 600 nM.

With `O=C(O)c1cc(Cl)ccc1Nc1c(N2CCC(F)CC2)cnc2ccc(Cl)cc12` [Compound 392A, 5-chloro-2-[[6-chloro-3-(4-fluoro-1-piperidyl)-4-quinolyl]amino]benzoic acid] the minimal effective concentration [1] was under 0.001 µM, the “TERC 3′ ends in human CD19+ cells (RACE)” value [2, 8] was “maturation of TERC 3′ ends” and the minimal effective concentration [3] was under 0.001 µM. For the same molecule, the “TERC 3′ end processing by RACE at 100 nM” value [4] was “maturation of TERC 3′ end processing”, the “TERC 3′ end processing by RACE at 1 μM” value [4] was “maturation of TERC 3′ end processing” and the “engraftment of CD45+, CD19+” value [5, 9] was “no change in engraftment”. It also gave a ΔTm at 1 µM (rPAPD5) of over 5 °C, a ΔTm at 10 µM (rPAPD5; [11]) of over 5 °C and a ΔTm at 10 µM (rPAPD5; [13]) of over 5 °C. For the same molecule, the IC50 [6] was 95 nM.
